These results are taken from patent US8629283B2, “Compounds that modulate negative-sense, single-stranded RNA virus replication and uses thereof” (Icahn School of Medicine at Mount Sinai, priority 2008, dated 2014).

Data set [1] has as its system influenza A/WSN/33 virus.
Data set [2] relates to influenza A virus (FluA).
A further data set in a line: in vitro. The note with it: human.
Another data set has as its system A549 cells. The following applies: for concentrations found non-toxic / not decreasing cell viability, up to: A549 cells, 24 h, MTS assay. (Tetrazolium assays rely on reduction of a dye to a coloured formazan, in cell work by metabolically active cells.)
In data set [3] the test system is influenza A virus (FluA). Nature of the data set: in vitro. The following applies: human.
In data set [4] the test system is influenza A virus (FluA). Nature of the data set: microbe, parasite or virus in culture. The note with it: A549, read-out: IC50 (A549).
For data set [5], the system named is influenza A/WSN/33 virus. The class given is cell-based.
The test system of data set [6] is influenza B/Yamagata/88 virus. In kind it is cell-based.
The test system of data set [7] is influenza A/Wyoming/03/2003 virus. In kind it is cell-based.
The test system of data set [8] is influenza A/Moscow/10/99 virus. In kind it is cell-based.
Data set [9] relates to vesicular stomatitis virus (VSV). In kind it is cell-based.
Data set [10] deals with Newcastle disease virus (NDV/B1). The class given is cell-based.
In data set [11] the target is influenza viral RNA polymerase (Influenza A virus, UniProt P03427+P03430+P15659). The class given is cell-based.
Data set [12] has as its system influenza A/WSN/33 virus. Nature of the data set: microbe, parasite or virus in culture. The following applies: A549, 24 h.
Where [13] appears, read: read-out: IC50 (compound concentration of 50% inhibition of viral replication).

Read-outs that look alike come from different tables or passages of the source. Marks after values point to notes of the source that are not given here. Some results are limits rather than exact numbers.

As to `N/C(=N\C(=O)c1nc(Cl)c(N)nc1N)NCc1ccc(Cl)c(Cl)c1` [3′,4′-dichlorobenzamil], in the data set on influenza A/WSN/33 virus [1], the “efficiency of growth enhancement relative to 2′,4′-dichlorobenzamil” value was determined as 10 times less efficient and the “influenza virus growth versus untreated control” value is given as “boost influenza virus replication”.
As for `CCN(CC)S(=O)(=O)c1ccc(-c2nnc(SCC(=O)N3CCCC3)o2)cc1` [A3-1], the “Inhibition of FluA (Table 5)” value with influenza A virus (FluA) [2] is recorded as approximately 29%**. The CC50 in the data set “in vitro” is 316 µM. Moreover, the “CC10 (A549), concentration of 10% cytotoxicity” value (“CC10 … of 10% cytotoxicity” for short) in the data set with A549 cells (human) came to 17.3 µM.
Turning to `CCN(CC)C(=O)CSc1nnc(-c2ccc3[nH]c(C)c(C)c3c2)o1` [A3-2, 2-(5-(2,3-dimethyl-1H-indol-5-yl)-1,3,4-oxadiazol-2-ylthio)-N,N-diethylacetamide], in the data set on influenza A virus (FluA) [2], the “Inhibition of FluA (Table 5)” value was approximately 97%**. Moreover, in the data set “in vitro”, the CC50 came to 198 µM. Further, the selectivity ratio in the data set on influenza A virus (FluA) [3] was more than 165. For the same molecule, the “CC10 … of 10% cytotoxicity” value in the data set on A549 cells (human) is 29 µM. Moreover, in the data set on influenza A virus (FluA) [4], the IC50 was 1.2 µM.
The like results for `Cc1[nH]c2ccc(-c3nnc(SCC(=O)N4CCc5ccccc54)o3)cc2c1C` [A3-3, 2-(5-(2,3-dimethyl-1H-indol-5-yl)-1,3,4-oxadiazol-2-ylthio)-1-(indolin-1-yl)ethanone] were, in that order, approximately 50%**, 65 µM, 8, 8.5 µM and 8.5 µM.
The matching figures for `Cc1[nH]c2ccc(-c3nnc(SCC(=O)N(C(C)C)C(C)C)o3)cc2c1C` [A3-4, 2-(5-(2,3-dimethyl-1H-indol-5-yl)-1,3,4-oxadiazol-2-ylthio)-N,N-diisopropylacetamide]: approximately 87.5%**, 17.7 µM, 11, 10.7 µM and 1.65 µM.
The like results for `Cc1[nH]c2ccc(-c3nnc(SCC(=O)N4CCOCC4)o3)cc2c1C` [A3-5, 2-(5-(2,3-dimethyl-1H-indol-5-yl)-1,3,4-oxadiazol-2-ylthio)-1-morpholinoethanone] were, in that order, approximately 97%**, 257 µM, 514, 10.2 µM and 0.5 µM.
In the case of `Cc1[nH]c2ccc(-c3nnc(SCC(=O)N4CCCCCC4)o3)cc2c1C` [A3-6, 1-(azepan-1-yl)-2-(5-(2,3-dimethyl-1H-indol-5-yl)-1,3,4-oxadiazol-2-ylthio)ethanone], the “Inhibition of FluA (Table 5)” value in the data set on influenza A virus (FluA) [2] is approximately 87.5%**. In addition, the CC50 in the data set “in vitro” was 179 µM. In the data set with influenza A virus (FluA) [3], the selectivity ratio amounted to 180. In addition, the “CC10 … of 10% cytotoxicity” value in the data set on A549 cells (human) is 18.2 µM. Moreover, the IC50 with influenza A virus (FluA) [4] is 0.98 µM.
In the case of `O=C(CSc1nnc(-c2cc3ccccc3[nH]2)o1)N1CCCC1` [A3-7], the “Inhibition of FluA (Table 5)” value in the data set on influenza A virus (FluA) [2] was approximately 29%**. The same molecule yielded a CC50 in “in vitro” of 134 µM. In addition, in the data set on A549 cells (human), the “CC10 … of 10% cytotoxicity” value stood at 15.2 µM.
The matching figures for `COc1ccc(-c2nnc(SCC(=O)N3CCCC3)o2)cc1` [A3-8]: “none**”, 250 µM and 11.8 µM.
Consider `O=C(CSc1nnc(-c2cc3ccccc3o2)o1)N1CCCC1` [A3-9], for which the “Inhibition of FluA (Table 5)” value in the data set on influenza A virus (FluA) [2] is approximately 29%**. The same molecule returned a CC50 in the data set “in vitro” of 197 µM. Moreover, in the data set on A549 cells (human), the “CC10 … of 10% cytotoxicity” value is 10.9 µM.
The like results for `O=C(CSc1nnc(-c2cccnc2)o1)N1CCCC1` [A3-11] were, in that order, “none**”, 249 µM and 32.6 µM.
The matching figures for `O=C(CSc1nnc(-c2ccncc2)o1)N1CCCC1` [A3-12]: approximately 29%**, 186 µM and 11.5 µM.
`CN(Cc1ccccc1)c1nc(-c2ccc([N+](=O)[O-])cc2)cs1` [A35-1, N-methyl-4-(4-nitrophenyl)-N-(phenylmethyl)-2-thiazolamine]: in the data set on influenza A virus (FluA) [2], the “Inhibition of FluA (Table 5)” value is recorded as approximately 75%**. Moreover, the CC50 in “in vitro” was determined as 201 µM. Also, the selectivity ratio in the data set on influenza A virus (FluA) [3] amounted to 62. Moreover, in the data set on A549 cells (human), the “CC10 … of 10% cytotoxicity” value turned out to be 10.8 µM. The IC50 in the data set on influenza A virus (FluA) [4] was determined as 3.24 µM.
In the case of `CN(c1nc(-c2ccccc2)cs1)C1CCS(=O)(=O)C1` (stereo not drawn) [A35-2], the “Inhibition of FluA (Table 5)” value in the data set on influenza A virus (FluA) [2] is given as “none**”. This molecule also gave a CC50 in the data set “in vitro” of 148 µM. Also, the “CC10 … of 10% cytotoxicity” value with A549 cells (human) came out at 12.2 µM.
In the case of `Nc1nc(-c2ccc(Cl)cc2)cs1` [A35-3], the “Inhibition of FluA (Table 5)” value with influenza A virus (FluA) [2] is on record as “none**”. Besides, the CC50 in the data set “in vitro” amounted to 165 µM. For the same molecule, the “CC10 … of 10% cytotoxicity” value in the data set on A549 cells (human) came to 11.4 µM.
In the case of `CN(c1ccc(O)cc1)c1nc(-c2ccc(Cl)cc2)cs1` [A35-4, 4-[[4-(4-chlorophenyl)-1,3-thiazol-2-yl](methyl)amino]phenol], the “Inhibition of FluA (Table 5)” value in the data set on influenza A virus (FluA) [2] is approximately 50%**. For the same molecule, the CC50 in the data set “in vitro” amounted to 30 µM. In the data set with influenza A virus (FluA) [3], the selectivity ratio worked out at 5. In addition, in the data set with A549 cells (human), the “CC10 … of 10% cytotoxicity” value came to 6 µM. Besides, the IC50 in the data set on influenza A virus (FluA) [4] worked out at 6 µM.
`CCCCCCCCCCCCCC(=O)O[C@@H]1[C@@H](C)[C@@]2(O)[C@@H](C=C(CO)C[C@]3(O)C(=O)C(C)=C[C@@H]23)[C@@H]2C(C)(C)[C@]12OC(C)=O` [PMA, phorbol 12-myristate 13-acetate]: the “increase of viral titer compared to untreated cells” value with influenza A/WSN/33 virus [1] was determined as 12 fold. Also, the “HTS result (luciferase signal of influenza mini-genome reporter)” value (“HTS result” for short) in the data set with influenza A/WSN/33 virus [5] was “not originally recognized in the screen as an enhancer”.
With `N#Cc1cc2c(OCC(O)CN3CCN(C(c4ccccc4)c4ccccc4)CC3)cccc2[nH]1` (stereo not drawn) [SDZ-201106], in the data set with influenza A/WSN/33 virus [1], the “SI [CC50/IC50] selective index” value is reported as 7 and the “reduction in viral titer compared to untreated control” value was 85%. Moreover, the IC50 with influenza A/WSN/33 virus [1] (setting [13]) is 4.1 µM. Besides, the “HTS result” value in the data set on influenza A/WSN/33 virus [5] is given as “potential influenza virus inhibitors”. The “reduction in viral growth/titer compared to untreated control” value in data set [6] stood at 72%. The “concentrations found non-toxic / not decreasing cell viability, up to” value in the data set on A549 cells is given as “up to 12.5 μM”.
Take `C[C@H]1O[C@@H](O[C@H]2[C@@H](O)C[C@H](O[C@H]3[C@@H](O)C[C@H](O[C@H]4CC[C@@]5(C)[C@H](CC[C@@H]6[C@@H]5C[C@@H](O)[C@]5(C)[C@@H](C7=CC(=O)OC7)CC[C@]65O)C4)O[C@@H]3C)O[C@@H]2C)C[C@H](O)[C@@H]1O` [digoxin]: the “HTS result” value with influenza A/WSN/33 virus [5] is on record as “potential influenza virus inhibitors”.
Consider `C=C(C)[C@@]12O[C@@]3(c4ccccc4)O[C@@H]1[C@@H]1[C@@H]4O[C@]4(CO)[C@@H](O)[C@]4(O)C(=O)C(C)=C[C@H]4[C@@]1(O3)[C@H](C)[C@H]2OC(=O)/C=C/C=C/c1ccccc1` [mezerein], for which the “increase in viral titers in Vero cells” value in the data set on influenza A/WSN/33 virus [1] was found to be 15 fold. In addition, the “increase of viral titer compared to untreated cells” value in the data set with influenza A/WSN/33 virus [1] is listed as 17 fold; in data set [6] it was 8 fold. Moreover, the “maximum viral titer compared to untreated cells” value in data set [7] and in [8] was “significant increase” throughout.
As to `C[C@@H]1O[C@@H](O[C@H]2C[C@@H](O)[C@]3(CO)[C@H]4[C@H](O)C[C@]5(C)[C@@H](C6=CC(=O)OC6)CC[C@]5(O)[C@@H]4CC[C@]3(O)C2)[C@H](O)[C@H](O)[C@H]1O` [ouabain], the “decrease of viral titer compared to untreated control” value in the data set on influenza A/WSN/33 virus [1] is on record as 99.1%. In addition, the “inhibition of VSV replication” value in data set [9] is on record as “significantly inhibited”. Moreover, the “HTS result” value with influenza A/WSN/33 virus [5] is “potential influenza virus inhibitors”. Besides, the “inhibition of NDV replication” value in data set [10] is listed as “significantly inhibited”. Besides, in the data set with A549 cells (human), the CC50 is 0.047 µM and the “concentration that maintained at least an 80% cell viability (CC20)” value stood at 0.02 µM.
With `NC(=O)c1ncn([C@@H]2O[C@H](CO)[C@@H](O)[C@H]2O)n1` [ribavirin, reference compound], the “inhibition of viral RNA polymerase activity” value in [11] was determined as 90%.
Take `CC(=O)c1c(O)c(C)c(O)c(Cc2c(O)c3c(c(C(=O)/C=C/c4ccccc4)c2O)OC(C)(C)C=C3)c1O` [rottlerin]: the IC50 with influenza A/WSN/33 virus [12] (setting [13]) was 0.46 µM; with influenza A/WSN/33 virus [12] (read-out: IC50 (half maximal inhibitory concentration)), 0.465 µM. Moreover, the “SI [CC50/IC50] selective index” value in the data set with influenza A/WSN/33 virus [1] is reported as 39. The “reduction in viral titer compared to untreated control” value with influenza A/WSN/33 virus [1] was found to be 93%; in [6], 80%. Further, the “HTS result” value in the data set with influenza A/WSN/33 virus [5] is recorded as “potential influenza virus inhibitors”. Further, the “concentrations found non-toxic / not decreasing cell viability, up to” value in the data set with A549 cells is “up to 1.28 μM”.
As to `C[C@]12CC[C@H]3[C@@H](CC[C@]4(O)C[C@@H](O)CC[C@]34C=O)[C@@]1(O)CC[C@@H]2C1=CC(=O)OC1` [strophanthidin], the “HTS result” value in the data set with influenza A/WSN/33 virus [5] is “potential influenza virus inhibitors”.
In the case of lanatoside C, in the data set on influenza A/WSN/33 virus [1], the “decrease of viral titer compared to untreated control” value amounted to 95.9%. Besides, the “inhibition of VSV replication” value in data set [9] is “significantly inhibited”. Besides, the “HTS result” value in the data set on influenza A/WSN/33 virus [5] was “potential influenza virus inhibitors”. In addition, the “inhibition of NDV replication” value in data set [10] was “significantly inhibited”. Moreover, in the data set on A549 cells, the CC50 turned out to be 0.21 µM and the “concentration that maintained at least an 80% cell viability (CC20)” value is 0.078 µM.
